Several values for one entry are separate records, joined by “and”; a condition that tells them apart may be missing. Equal entries are not always repeated.
What was measured:
Format in all cases: biochemical
Mythimna separata GSTs = assay: Inhibition of total GSTs enzyme of Mythimna separata (CDNB method)
Protocol: (§1) Experiment: About 50 mg of larvae/nymphs of nine major pests such as Plutella xylostella, Mythimna separata, Pyrausta nubilalis, Chilo suppressalis, Nilaparvata lugens, Spodoptera frugiperda, Helicoverpa armigera, Carposina sasakii, Spodoptera litura were taken, grounded in a mortar pre-cooled at −80° C., and then 1 mL of 100 mM sodium phosphate buffer (1 mM EDTA, pH 7.2) was added and fully homogenized. The homogenate was transferred to a 1.5 mL centrifuge tube at 4° C., and centrifuged at 14,000 g for 30 minutes, and the supernatant was transferred to a new centrifuge tube as the GSTs total enzyme. The protein concentrations of the above total enzymes were determined using the BCA method.
(§2) 100 μL of PBS buffer (100 mM, pH 7.2) containing 1 mM GSH was taken and placed in a 96-well plate, 5 μg of insect total GSTs enzymes and an appropriate concentration of compounds PXG1-PXG29 (29 compounds) of the present invention were added to each well, after uniformly mixing, and allowed to stand at 30° C. for 10 min. Then 100 μL of PBS buffer (100 mM, pH 7.2) containing 1 mM CDNB was added to each well. Immediately after mixing, the mixture was placed in a microplate reader to measure the absorbance at a wavelength of 340 nm (A 340) once every 1 min, the measurement was carried out continuously for 5 min, the light absorption values of each measuring point were recorded and the inhibition rate in vitro of the compounds with different concentrations against insects total GSTs enzymes were calculated. Each group of assays was repeated three times, and total GSTs enzymes inactivated at 100° C. for 5 min were used as negative controls, and GTX was used as positive controls. GraphPad Prism 5 software was used for analysis and calculation of IC50. Relative inhibition was calculated using the following formula:
(§3) [formula] • wherein, A340 is the change of A340 within 5 minutes for the control group, and A340t is the change of A340 within 5 minutes for the experimental group.

Plutella xylostella GSTs = assay: Inhibition of total GSTs enzyme of Plutella xylostella (CDNB method)
Protocol: as §1, §2, §3

[1] = biological target: Spodoptera frugiperda GSTs; assay: Inhibition of total GSTs enzyme of Spodoptera frugiperda (CDNB method)
Protocol: as §1, §2, §3

PxGSTσ2 = PxGSTσ2 (Plutella xylostella, UniProt Q6F443); assay: Inhibition of PxGSTσ2 recombinant protein; details: read-out: 100 μM Inhibition rate %
PxGSTσ2, sequence (Q6F443 entry or part of it): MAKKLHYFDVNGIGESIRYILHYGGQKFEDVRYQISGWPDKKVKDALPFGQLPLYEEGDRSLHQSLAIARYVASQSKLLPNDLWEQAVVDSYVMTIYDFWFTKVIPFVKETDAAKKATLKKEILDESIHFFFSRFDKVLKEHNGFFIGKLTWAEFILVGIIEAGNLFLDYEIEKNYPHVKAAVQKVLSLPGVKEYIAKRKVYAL
Protocol: (§4) Experiment: 100 μL of PBS buffer (100 mM, pH 7.2) was taken and added to a 96-well plate, 1 μg of PxGSTs recombinant protein and an appropriate concentration of the compounds PXG1-PXG29 of the present invention were added to each well, after uniformly mixing, and allowed to stand at 30° C. for 10 min. Then 100 μL of PBS buffer (100 mM, pH 7.2) containing 1 mM CDNB and 1 mM GSH was successively added to each well. Immediately after mixing, the mixture was placed in a microplate reader to measure the absorbance at a wavelength of 340 nm (A340) once every 1 min, the measurement was continued for 5 min, the light absorption values of each measuring point were recorded and the inhibition rate in vitro of the compounds PXG1-PXG29 of the present invention with different concentrations against PxGSTs recombinant protein were calculated. Each group of assays was repeated three times, and PxGSTs recombinant protein inactivated at 100° C. for 5 min was used as negative control, and GTX was used as positive control. GraphPad Prism 5 software was used for analysis and calculation of IC50. Relative inhibition was calculated using the following formula:
(§5) [formula] • wherein, A340c is the change of A340 […] the control group, an A340t is the change of A340 within 5 minutes for the experimental group.

Nilaparvata lugens GSTs = assay: Inhibition of total GSTs enzyme of Nilaparvata lugens (CDNB method)
Protocol: as §1, §2, §3

PxGSTε3 = PxGSTε3 (Plutella xylostella, UniProt O77409); assay: Inhibition of PxGSTε3 recombinant protein; details: read-out: 100 μM Inhibition rate %
PxGSTε3, sequence (O77409 entry or part of it): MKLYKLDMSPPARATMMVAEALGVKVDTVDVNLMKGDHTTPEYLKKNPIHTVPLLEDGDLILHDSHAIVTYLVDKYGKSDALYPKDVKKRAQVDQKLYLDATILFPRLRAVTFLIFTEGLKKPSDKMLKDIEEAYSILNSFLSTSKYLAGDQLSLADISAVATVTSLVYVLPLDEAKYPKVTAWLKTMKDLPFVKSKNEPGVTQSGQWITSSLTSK
Protocol: as §4, §5

[2] = biological target: Helicoverpa armigera GSTs; assay: Inhibition of total GSTs enzyme of Helicoverpa armigera (CDNB method)
Protocol: as §1, §2, §3

Chilo suppressalis GSTs = assay: Inhibition of total GSTs enzyme of Chilo suppressalis (CDNB method)
Protocol: as §1, §2, §3

PxGSTδ1 = PxGSTδ1 (Plutella xylostella, UniProt D7URW9); assay: Inhibition of PxGSTδ1 recombinant protein; details: read-out: 100 μM Inhibition rate %
PxGSTδ1, sequence (D7URW9 entry or part of it): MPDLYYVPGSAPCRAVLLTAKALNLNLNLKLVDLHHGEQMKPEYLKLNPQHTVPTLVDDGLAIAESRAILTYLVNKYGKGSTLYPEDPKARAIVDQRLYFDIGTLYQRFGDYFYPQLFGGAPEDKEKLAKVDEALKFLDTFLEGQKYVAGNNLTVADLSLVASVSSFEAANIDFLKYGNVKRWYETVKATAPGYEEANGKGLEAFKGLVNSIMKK
Protocol: as §4, §5

Pyrausta nubilalis GSTs = assay: Inhibition of total GSTs enzyme of Pyrausta nubilalis (CDNB method)
Protocol: as §1, §2, §3

PxGSTσ1 = PxGSTσ1 (Plutella xylostella, UniProt Q6F436); assay: Inhibition of PxGSTσ1 recombinant protein; details: read-out: 100 μM Inhibition rate %
PxGSTσ1, sequence (Q6F436 entry or part of it): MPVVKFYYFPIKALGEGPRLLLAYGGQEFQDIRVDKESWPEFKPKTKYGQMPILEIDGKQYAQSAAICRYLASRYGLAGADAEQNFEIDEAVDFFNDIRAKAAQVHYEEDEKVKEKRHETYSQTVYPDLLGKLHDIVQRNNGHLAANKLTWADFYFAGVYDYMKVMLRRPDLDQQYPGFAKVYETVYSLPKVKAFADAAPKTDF
Protocol: as §4, §5

Spodoptera litura GSTs = assay: Inhibition of total GSTs enzyme of Spodoptera litura (CDNB method)
Protocol: as §1, §2, §3

Carposina sasakii GSTs = assay: Inhibition of total GSTs enzyme of Carposina sasakii (CDNB method)
Protocol: as §1, §2, §3

Row | SMILES | IC50 (Mythimna separata GSTs) [µM] | 100 μM Inhibition rate % (Mythimna separata GSTs) [%] | IC50 (Plutella xylostella GSTs) [µM] | 100 μM Inhibition rate % (Plutella xylostella GSTs) [%] | IC50 [1] [µM] | 100 μM Inhibition rate % [1] [%] | inhibition at 100 µM (PxGSTσ2) [%] | 100 μM Inhibition rate % (Nilaparvata lugens GSTs) [%] | inhibition at 100 µM (PxGSTε3) [%] | IC50 [2] | 100 μM Inhibition rate % [2] [%] | 100 μM Inhibition rate % (Chilo suppressalis GSTs) [%] | inhibition at 100 µM (PxGSTδ1) [%] | IC50 (Pyrausta nubilalis GSTs) [µM] | 100 μM Inhibition rate % (Pyrausta nubilalis GSTs) [%] | inhibition at 100 µM (PxGSTσ1) [%] | IC50 (Spodoptera litura GSTs) [µM] | 100 μM Inhibition rate % (Spodoptera litura GSTs) [%] | IC50 (Carposina sasakii GSTs) [µM] | 100 μM Inhibition rate % (Carposina sasakii GSTs) [%] | other results
1 | CC1(c2ccccc2)NC(=O)N(NC(=O)c2cc(-c3ccccc3)nn2-c2ccccc2)C1=O (centres unmarked) [PXG12, N-(4-methyl-2,5-dioxo-4-phenylimidazolin-1-yl)-1,3-diphenyl-1H-pyrazol-5-yl-carboxamide] | > 100 | 19.42 | > 100 | 15.08 | > 100 | 12.52 | 33.6 | −3.30 | 10.9 | > 100 µM | −5.00 | 29.54 | 40.2 | > 100 | 19.48 | 48.3 | > 100 | 4.60 | > 100 | 17.94 | IC50 (Nilaparvata lugens GSTs): > 100 µM; IC50 (Chilo suppressalis GSTs): > 100 µM
2 | COc1ccccc1CC(=O)NNC(=O)c1cc(-c2ccccc2)nn1-c1ccccc1 [PXG10, N′-(1,3-diphenyl-1H-pyrazol-5-yl-carbonyl)-2-(2-methoxyphenyl) acetohydrazide] | > 100 | −2.50 | > 100 | −17.71 | > 100 | 20.93 | 19.2 | 19.24 | 2.03 | > 100 µM | 9.75 | 5.85 | 91 | > 100 | −3.85 | 29.4 | > 100 | 3.87 | > 100 | 32.54 | IC50 (Nilaparvata lugens GSTs): > 100 µM; IC50 (Chilo suppressalis GSTs): > 100 µM
3 | CN(C)S(=O)(=O)c1cccc(C(=O)NNC(=O)c2cc(-c3ccccc3)nn2-c2ccccc2)c1 [PXG9, 3-[N′-(1,3-diphenyl-1H-pyrazol-5-yl-carbonyl) hydrazinocarbonyl]-N,N-dimethylphenyl-1-sulfonamide] | > 100 | 2.72 | > 100 | 3.94 | > 100 | 5.56 | 31.4 | −10.48 | -3.88 | > 100 µM | 5.25 | 34.79 | 30.4 | > 100 | 5.71 | 28.6 | > 100 | 12.58 | > 100 | 12.55 | IC50 (Nilaparvata lugens GSTs): > 100 µM; IC50 (Chilo suppressalis GSTs): > 100 µM
4 | N#Cc1ccccc1OCC(=O)NNC(=O)c1cc(-c2ccccc2)nn1-c1ccccc1 [PXG23, 2-(2-cyanophenoxy)-N′-(1,3-diphenyl-1H-pyrazol-5-yl-carbonyl)acetohydrazide] | > 100 | 22.92 | > 100 | 26.35 | > 100 | 22.33 | 26.9 | 24.74 | 6.04 | > 100 µM | 0.43 | 22.83 | 77.7 | > 100 | 15.55 | 35.9 | > 100 | 12.89 | > 100 | 19.76 | IC50 (Nilaparvata lugens GSTs): > 100 µM; IC50 (Chilo suppressalis GSTs): > 100 µM
5 | O=C(CC12C[C@H]3C[C@H](C1)C[C@@H](C2)C3)NNC(=O)c1cc(-c2ccccc2)nn1-c1ccccc1 [PXG26, N′-(1,3-diphenyl-1H-pyrazol-5-yl-carbonyl)-2-[(3r)-adamantan-1-yl]acetohydrazide] | > 100 | 42.48 | > 100 | 25.09 | > 100 | 16.01 | 24.7 | 28.56 | 7.12 | > 100 µM | 24.75 | 17.07 | 21.6 | > 100 | −0.99 | 67.9 | > 100 | 15.89 | > 100 | 18.11 | IC50 (Nilaparvata lugens GSTs): > 100 µM; IC50 (Chilo suppressalis GSTs): > 100 µM
6 | CC1(CCc2ccccc2)NC(=O)N(NC(=O)c2cc(-c3ccccc3)nn2-c2ccccc2)C1=O (centres unmarked) [PXG15, N-[4-methyl-2,5-dioxo-4-(2-phenylethyl)imidazolin-1-yl]-1,3-diphenyl-1H-pyrazol-5-yl-carboxamide] | > 100 | 4.29 | > 100 | 16.83 | > 100 | 0.41 | 25.6 | 2.97 | 4.62 | > 100 µM | −1.48 | 18.72 | 7.86 | > 100 | 4.69 | 42.5 | > 100 | −5.22 | > 100 | 17.01 | IC50 (Nilaparvata lugens GSTs): > 100 µM; IC50 (Chilo suppressalis GSTs): > 100 µM
7 | CCCCCCSC[C@H](NC(=O)CC[C@H](N)C(=O)O)C(=O)NCC(=O)O [GTX, S-Hexylglutathione, reference compound] | 16.3 | 87.20 | 12.9 | 73.72 |  | 95.20 | 84.8 | 95.14 | 50.7 | 14.4 µM and 14.1 µM | 96.30 | 99.97 | 66.5 | 23.5 | 86.35 | 67.3 | 15.2 | 85.61 | 6.87 | 95.39 | 
8 | O=C(COc1ccccc1)NNC(=O)c1cc(-c2ccccc2)nn1-c1ccccc1 [PXG5, N′-(1,3-diphenyl-1H-pyrazol-5-yl-carbonyl)-2-phenoxyacetohydrazide] | > 100 | 47.24 | > 100 | 11.58 | > 100 | 31.42 | 24.5 | 23.90 | -2.97 | > 100 µM | 9.57 | 28.17 | 81.7 | > 100 | 14.08 | 35.6 | > 100 | 37.80 | > 100 | 23.22 | IC50 (Nilaparvata lugens GSTs): > 100 µM; IC50 (Chilo suppressalis GSTs): > 100 µM

Source: US12617771B2, “Diphenylpyrazole compound, and preparation method therefor and application thereof” (NORTHWEST A&F UNIVERSITY, priority 2021, dated 2026)
